# ChEMBL document CHEMBL3585345 (ACS Med Chem Lett, 2015)
# Active and inactive are the calls of the source. The calls are words filed in the database; no cut-off is given here.
# What was measured:
# Calu-6 [1] = assay: Antitumor activity against human Calu6 cells xenografted in mouse assessed as tumor growth inhibition at 20 mg/kg, po bid administered for 21 days; type: functional, organism-based
# [2] = Cmax in nude mouse brain at 30 mg/kg, po; type: ADME, organism-based; parameters: dose 30 mg/kg, route oral
# [3] = AUC (0 to 8 hrs) in nude mouse brain at 30 mg/kg, po; type: ADME, organism-based; parameters: dose 30 mg/kg, time < 8 hr, route oral
# [4] = Volume of distribution at steady state in Sprague-Dawley rat at 1 mg/kg, iv; type: ADME, organism-based; settings: in vivo, read-out: Vdss
# [5] = Substrate activity at P-gp (unknown origin) transfected in MDCK cells; type: ADME, cell-based; settings: human
# Caco-2 [6] = assay: Permeability across basolateral to apical side in human Caco2 cells; type: ADME, cell-based
# Rattus norvegicus [7] = assay: Toxicity in Sprague-Dawley rat assessed as mucositis at maximum tolerated dose, po administered for 7 days; type: organism-based; settings: in vivo, 168 h
# [8] = Protein binding in plasma (unknown origin); type: ADME, cell-free; settings: read-out: PPB
# [9] = target: T1, Gamma-aminobutyric acid receptor subunit alpha-1 (Homo sapiens, UniProt P14867); assay: Binding affinity to GABAA alpha-1 benzodiazepine binding site (unknown origin)
# T1 sequence (P14867 whole entry): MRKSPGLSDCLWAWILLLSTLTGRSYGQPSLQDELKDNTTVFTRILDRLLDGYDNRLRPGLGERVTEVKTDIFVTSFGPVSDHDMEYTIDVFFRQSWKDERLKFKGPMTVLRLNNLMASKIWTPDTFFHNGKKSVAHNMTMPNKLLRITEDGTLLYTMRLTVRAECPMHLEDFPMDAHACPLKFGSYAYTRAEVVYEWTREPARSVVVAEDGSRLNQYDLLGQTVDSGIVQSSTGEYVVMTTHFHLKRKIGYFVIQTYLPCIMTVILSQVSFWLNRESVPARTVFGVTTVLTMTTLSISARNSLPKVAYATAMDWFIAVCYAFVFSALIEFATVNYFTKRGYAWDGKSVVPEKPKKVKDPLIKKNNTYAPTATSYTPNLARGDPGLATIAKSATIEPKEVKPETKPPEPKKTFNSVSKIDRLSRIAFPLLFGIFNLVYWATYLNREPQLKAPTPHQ
# [10] = (§1) Oral bioavailability in Sprague-Dawley rat at 10 mg/kg; type: ADME, organism-based; settings: Sprague-Dawley, in vivo
# Caco-2 [11] = assay: Permeability across apical to basolateral side in human Caco2 cells; type: ADME, cell-based
# Aurora kinase A [12] = target: T2, Aurora kinase A (Mus musculus, UniProt P97477); assay: Competitive inhibition of recombinant mouse aurora kinase A expressed in insect Sf9 cells in presence of ATP
# T2 sequence (P97477 whole entry): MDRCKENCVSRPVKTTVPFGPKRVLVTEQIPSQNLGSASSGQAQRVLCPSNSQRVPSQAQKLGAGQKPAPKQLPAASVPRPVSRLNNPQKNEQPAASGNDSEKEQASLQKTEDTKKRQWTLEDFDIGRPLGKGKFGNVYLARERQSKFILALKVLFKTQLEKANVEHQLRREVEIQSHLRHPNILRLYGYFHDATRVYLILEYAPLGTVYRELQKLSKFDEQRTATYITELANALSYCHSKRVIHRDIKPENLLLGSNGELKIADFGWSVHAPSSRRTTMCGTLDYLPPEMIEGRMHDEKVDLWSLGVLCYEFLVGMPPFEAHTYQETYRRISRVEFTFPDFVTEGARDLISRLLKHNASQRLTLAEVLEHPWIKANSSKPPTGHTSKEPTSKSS
# [13] = Terminal half life in Sprague-Dawley rat at 1 mg/kg, iv; type: ADME, organism-based; settings: in vivo, read-out: beta t1/2 (converted)
# Rattus norvegicus [14] = assay: AUC (0 to 24 hrs) in po dosed Sprague-Dawley rat; type: ADME, organism-based; parameters: time < 24 hr, route oral; settings: in vivo
# [15] = Clearance in Sprague-Dawley rat at 1 mg/kg, iv; type: ADME, organism-based; settings: in vivo
# Rattus norvegicus [16] = assay: Toxicity in Sprague-Dawley rat assessed as reversible effect on central nervous system at maximum tolerated dose, po administered for 7 days; type: organism-based; settings: in vivo, 168 h
# [17] = Inhibition of CYP450 (unknown origin) up to 100 uM; type: ADME; settings: human
# Rattus norvegicus [18] = assay: Toxicity in Sprague-Dawley rat assessed as myelosuppression at maximum tolerated dose, po administered for 7 days; type: organism-based; settings: in vivo, 168 h
# [19] = Cmax in po dosed Sprague-Dawley rat; type: ADME, organism-based; parameters: route oral; settings: in vivo
# Aurora kinase A [20] = target: T2, Aurora kinase A; assay: Inhibition of recombinant mouse aurora kinase A expressed in insect Sf9 cells using biotin-GLRRASLG as substrate in presence of [gamma-33P]ATP
# HCT-116 = assay: Cytotoxicity against human HCT116 cells assessed as inhibition of cell proliferation by BrdU incorporation assay; type: functional
# Aurora kinase B = Aurora kinase B (Homo sapiens, UniProt Q96GD4); assay: Inhibition of aurora kinase B in human HCT116 cells assessed as inhibition of histone H3 phosphorylation by immunofluorescence analysis; type: cell-based, HCT-116
# Rattus norvegicus [21] = assay: Toxicity in Sprague-Dawley rat assessed as GABAA related effect at maximum tolerated dose, po administered for 7 days; type: organism-based; settings: in vivo, 168 h
# Rattus norvegicus [22] = assay: In vivo binding affinity to GABAA receptor in po dosed Sprague-Dawley rat; type: ADME, organism-based
# Plasma = assay: AUC (0 to 8 hrs) in nude mouse plasma at 30 mg/kg, po; type: ADME, organism-based; parameters: dose 30 mg/kg, time < 8 hr, route oral; settings: in vivo
# in vivo = settings: nude, mouse, brain/plasma, po, 30 mg/kg
# Calu-6 [23] = assay: Antitumor activity against human Calu6 cells xenografted in mouse assessed as tumor growth inhibition at 30 mg/kg, po bid administered for 21 days; type: functional, organism-based
# [24] = Aqueous solubility of the compound; type: physicochemical; settings: buffer
# Rattus norvegicus [25] = assay: Toxicity in Sprague-Dawley rat assessed as GABAA related effect administered as iv infusion measured within 5 mins; type: organism-based; settings: in vivo
# Rattus norvegicus [26] = assay: as §1; type: ADME, organism-based; settings: in vivo
# [27] = Inhibition of human CYP450; type: ADME
# Aurora kinase A [28] = target: T3, Aurora kinase A (Homo sapiens, UniProt O14965); assay: Inhibition of aurora kinase A autophosphorylation at T288 in human HCT116 cells by immunofluorescence analysis; type: cell-based, HCT-116
# T3 sequence (O14965 whole entry): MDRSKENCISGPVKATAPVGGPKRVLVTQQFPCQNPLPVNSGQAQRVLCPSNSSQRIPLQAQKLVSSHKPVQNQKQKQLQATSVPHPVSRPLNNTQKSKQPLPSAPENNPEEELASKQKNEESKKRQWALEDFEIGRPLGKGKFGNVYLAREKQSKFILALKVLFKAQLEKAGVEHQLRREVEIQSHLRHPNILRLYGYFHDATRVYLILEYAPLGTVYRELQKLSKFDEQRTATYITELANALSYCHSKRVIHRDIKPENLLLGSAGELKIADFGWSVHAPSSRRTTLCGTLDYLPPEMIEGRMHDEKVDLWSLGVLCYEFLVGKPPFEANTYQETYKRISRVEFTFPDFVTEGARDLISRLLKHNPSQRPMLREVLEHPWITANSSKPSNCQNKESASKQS
# Chain of Aurora kinase B (Q96GD4 whole entry): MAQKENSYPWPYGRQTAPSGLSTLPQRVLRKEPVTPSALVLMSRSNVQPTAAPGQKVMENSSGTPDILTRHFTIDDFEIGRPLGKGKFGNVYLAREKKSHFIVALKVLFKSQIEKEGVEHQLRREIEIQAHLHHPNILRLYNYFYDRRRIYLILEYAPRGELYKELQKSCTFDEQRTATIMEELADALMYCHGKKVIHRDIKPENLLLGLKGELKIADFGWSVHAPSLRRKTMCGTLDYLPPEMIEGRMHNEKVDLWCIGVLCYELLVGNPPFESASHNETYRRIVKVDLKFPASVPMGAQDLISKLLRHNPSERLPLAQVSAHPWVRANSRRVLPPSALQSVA
structure (smiles),measurement,setting,value
COc1cc(Nc2ncc3c(n2)-c2ccc(Cl)cc2C(c2c(F)cccc2OC)=NC3)ccc1C(=O)O,TGI,Calu-6 [1],Active
O=C([O-])c1ccc(Nc2ncc3c(n2)-c2ccc(Cl)cc2C(c2c(F)cccc2F)=NC3)cc1.[Na+],Cmax,[2],2600 ng/mL
same,AUC(0-t) at 8 h,[3],12500 ng·h/mL
O=C(O)c1ccc(Nc2ncc3c(n2)-c2ccc(Cl)cc2C(c2c(F)cccc2F)=NC3)cc1 [MLN-8054],Vd,[4],1.48 L/kg
same,Activity,[5],Not Active
same,permeability,Caco-2 [6],79 ×10⁻⁶ cm/s
same,Activity,Rattus norvegicus [7],Toxic
same,fraction unbound,[8],< 0.02
same,IC50,[9],330 nM
same,bioavailability,[10],100%
same,permeability,Caco-2 [11],54 ×10⁻⁶ cm/s
same,Ki,Aurora kinase A [12],7 nM
same,half-life,[13],4.2 h
same,AUC,Rattus norvegicus [14],13800 ng·h/mL
same,clearance,[15],20.3 mL/min/kg
same,Activity,Rattus norvegicus [16],Toxic
same,inhibition (INH),[17],Not Active
same,Activity,Rattus norvegicus [18],Toxic
same,Cmax,[19],5200 ng/mL
same,IC50,Aurora kinase A [20],31 nM
O=C(O)c1ccc(Nc2ncc3c(n2)-c2ccc(Cl)cc2C(c2ccccc2F)=NC3)cc1,GI50,HCT-116,950 nM
same,IC50,Aurora kinase B,> 10000 nM
same,IC50,Aurora kinase A [20],33 nM
COc1cccc(F)c1C1=NCc2cnc(Nc3ccc(C(=O)O)cc3)nc2-c2ccc(Cl)cc21,Activity,Rattus norvegicus [21],Non-toxic
same,GI50,HCT-116,130 nM
same,IC50,Aurora kinase B,2500 nM
same,Activity,Rattus norvegicus [22],Non-toxic
same,IC50,[9],150 nM
same,AUC,Rattus norvegicus [14],244000 ng·h/mL
same,Cmax,[19],46000 ng/mL
same,IC50,Aurora kinase A [20],10 nM
COc1cccc(F)c1C1=NCc2cnc(Nc3ccc(C(=O)[O-])cc3)nc2-c2ccc(Cl)cc21.[Na+],Cmax,[2],930 ng/mL
same,AUC(0-t) at 8 h,[3],3500 ng·h/mL
same,AUC,Plasma,54300 ng·h/mL
same,Kp,in vivo,0.06
O=C(O)c1ccc(Nc2ncc3c(n2)-c2ccc(Cl)cc2C(c2c(F)cccc2F)=NC3)cc1,TGI,Calu-6 [23],Active
O=C([O-])c1ccc(Nc2ncc3c(n2)-c2ccc(Cl)cc2C(c2ccccc2F)=NC3)cc1.[Na+],solubility,[24],> 10000 µg/mL
same,permeability,Caco-2 [6],64 ×10⁻⁶ cm/s
same,permeability,Caco-2 [11],58 ×10⁻⁶ cm/s
COc1cc(Nc2ncc3c(n2)-c2ccc(Cl)cc2C(c2c(F)cccc2OC)=NC3)ccc1C(=O)[O-].[Na+],Cmax,[2],420 ng/mL
same,AUC(0-t) at 8 h,[3],2000 ng·h/mL
same,Kp,in vivo,0.03
COc1cc(Nc2ncc3c(n2)-c2ccc(Cl)cc2C(c2c(F)cccc2OC)=NC3)ccc1C(=O)O [ALISERTIB],Vd,[4],2.21 L/kg
same,Activity,Rattus norvegicus [21],Non-toxic
same,Activity,Rattus norvegicus [25],Toxic
same,Activity,[5],Not Active
same,permeability,Caco-2 [6],47 ×10⁻⁶ cm/s
same,GI50,HCT-116,30 nM
same,Activity,Rattus norvegicus [7],Toxic
same,fraction unbound,[8],< 0.03
same,Activity,Rattus norvegicus [22],Non-toxic
same,IC50,[9],490 nM
same,F,Rattus norvegicus [26],124%
same,permeability,Caco-2 [11],62 ×10⁻⁶ cm/s
same,Ki,Aurora kinase A [12],0.3 nM
same,half-life,[13],7 h
same,AUC,Rattus norvegicus [14],201000 ng·h/mL
same,Activity,Rattus norvegicus [18],Toxic
same,IC50,[27],> 100000 nM
same,Cmax,[19],48000 ng/mL
same,IC50,Aurora kinase A [20],1 nM
Nc1ncc2c(n1)-c1ccc(Cl)cc1C(c1ccccc1F)=NC2,IC50,Aurora kinase A [28],6000 nM
same,GI50,HCT-116,11000 nM
same,IC50,Aurora kinase B,> 10000 nM
same,IC50,Aurora kinase A [20],1700 nM
